Assay results published in patent US20200291018A1, “TAM KINASE INHIBITORS” (SYROS PHARMACEUTICALS, INC., priority 2017, published 2020).

Experiments:
[1] = molecular target: T1, AXL (Homo sapiens, UniProt P30530); test: TR-FRET kinase activity assay, AXL; assay type: biochemical; details: ATP at Km, 60 minutes
T1 sequence (P30530 26-894): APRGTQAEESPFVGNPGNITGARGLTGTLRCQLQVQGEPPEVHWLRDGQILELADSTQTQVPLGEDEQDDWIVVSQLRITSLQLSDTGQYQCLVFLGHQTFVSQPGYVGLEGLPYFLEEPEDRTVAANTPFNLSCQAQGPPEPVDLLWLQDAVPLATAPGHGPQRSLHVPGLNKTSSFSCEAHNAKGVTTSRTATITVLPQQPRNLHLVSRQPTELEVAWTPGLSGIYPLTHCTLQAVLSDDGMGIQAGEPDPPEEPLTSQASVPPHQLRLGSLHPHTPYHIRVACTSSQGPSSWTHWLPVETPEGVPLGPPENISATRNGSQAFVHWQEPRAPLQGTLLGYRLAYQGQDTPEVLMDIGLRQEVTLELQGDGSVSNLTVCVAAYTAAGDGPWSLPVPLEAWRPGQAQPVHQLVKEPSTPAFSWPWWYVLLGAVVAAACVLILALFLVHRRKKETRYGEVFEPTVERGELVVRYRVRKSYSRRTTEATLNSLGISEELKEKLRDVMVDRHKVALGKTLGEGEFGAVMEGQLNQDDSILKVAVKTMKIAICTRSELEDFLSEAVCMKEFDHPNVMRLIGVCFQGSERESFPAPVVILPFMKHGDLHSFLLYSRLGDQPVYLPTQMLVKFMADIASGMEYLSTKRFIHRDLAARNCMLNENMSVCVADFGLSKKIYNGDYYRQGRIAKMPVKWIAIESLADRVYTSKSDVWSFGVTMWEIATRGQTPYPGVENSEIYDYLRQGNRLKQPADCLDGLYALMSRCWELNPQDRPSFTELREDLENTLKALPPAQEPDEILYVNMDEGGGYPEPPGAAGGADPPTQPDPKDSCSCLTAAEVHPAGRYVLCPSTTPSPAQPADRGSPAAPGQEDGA
Outline: (§1)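 Each kinase phosphorylates a fluorescently labeled peptide on tyrosine in the presence of compound, with ATP at its Km, for 60 min at RT in HEPES pH 7.5 buffer with MgCl2, EGTA, Brij 35 and DTT. Product is detected by TR-FRET with a Europium-labeled phospho-specific antibody; IC50 values follow.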

[2] = molecular target: T2, FLT3 (Homo sapiens, UniProt P36888); test: TR-FRET kinase activity assay, FLT3; assay type: biochemical; details: ATP at Km, 60 minutes
T2 sequence (P36888 27-993): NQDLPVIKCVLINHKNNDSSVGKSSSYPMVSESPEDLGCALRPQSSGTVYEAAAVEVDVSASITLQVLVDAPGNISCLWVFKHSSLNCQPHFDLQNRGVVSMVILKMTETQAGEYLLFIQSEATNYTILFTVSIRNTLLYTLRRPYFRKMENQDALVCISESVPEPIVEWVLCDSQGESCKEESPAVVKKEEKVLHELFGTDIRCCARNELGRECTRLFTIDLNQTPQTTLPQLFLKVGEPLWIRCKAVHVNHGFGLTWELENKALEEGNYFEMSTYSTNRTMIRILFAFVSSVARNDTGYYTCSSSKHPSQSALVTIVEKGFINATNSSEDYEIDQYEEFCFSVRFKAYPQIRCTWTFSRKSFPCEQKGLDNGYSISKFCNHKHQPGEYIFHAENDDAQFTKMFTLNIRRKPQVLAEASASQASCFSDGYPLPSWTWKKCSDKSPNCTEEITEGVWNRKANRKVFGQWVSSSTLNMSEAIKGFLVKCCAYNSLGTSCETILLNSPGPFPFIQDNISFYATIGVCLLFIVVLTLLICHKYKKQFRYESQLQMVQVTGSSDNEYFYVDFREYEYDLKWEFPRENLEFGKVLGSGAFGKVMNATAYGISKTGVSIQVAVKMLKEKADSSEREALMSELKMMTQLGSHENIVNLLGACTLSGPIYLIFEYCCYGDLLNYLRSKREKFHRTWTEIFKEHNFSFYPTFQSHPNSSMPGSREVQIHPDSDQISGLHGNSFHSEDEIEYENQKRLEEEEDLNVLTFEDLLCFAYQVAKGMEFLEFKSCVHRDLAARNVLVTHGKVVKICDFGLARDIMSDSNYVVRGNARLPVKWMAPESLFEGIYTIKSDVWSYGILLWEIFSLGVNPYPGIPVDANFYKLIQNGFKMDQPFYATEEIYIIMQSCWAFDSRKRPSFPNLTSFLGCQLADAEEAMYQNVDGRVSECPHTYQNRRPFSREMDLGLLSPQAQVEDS
Outline: as §1

Row | Structure (SMILES) | IC50 [1] | IC50 [2]
1 | CCC(CC)Nc1ncc2c(=O)n(C3CCNCC3)cc([C@H]3CC[C@H](O)CC3)c2n1 [Compound 120] | 1000 to 10000 nM | 1000 to 10000 nM
2 | CC1(Nc2ncc3c(OC4CCOCC4)ncc(-c4cccc(NS(C)(=O)=O)c4)c3n2)CC1 [Compound 404] | 100 to 1000 nM | 1000 to 10000 nM
3 | COC[C@H](C)Nc1ncc2c(O[C@H]3CCN(C)C3)ncc([C@H]3CC[C@H](O)CC3)c2n1 [Compound 368] | 1000 to 10000 nM | > 10000 nM
4 | COCCN1C(C)(C)CC(Oc2ncc([C@H]3CC[C@H](O)CC3)c3nc(NC4(C)CC4)ncc23)CC1(C)C [Compound 379] | ≤ 100 nM | 100 to 1000 nM
5 | COC[C@H](C)Nc1ncc2c(OC3CCOCC3)ncc(-c3ccc(C#N)cc3)c2n1 [Compound 396] | 1000 to 10000 nM | 1000 to 10000 nM
6 | COC[C@H](C)Nc1ncc2c(OC3CCOCC3)ncc([C@H]3CC[C@H](O)CC3)c2n1 [Compound 122, (1S,4r)-4-(2-(((S)-1-methoxypropan-2-yl)amino)-5-((tetrahydro-2H-pyran-4-yl)oxy)pyrido[4,3-d]pyrimidin-8-yl)cyclohexan-1-ol] | 100 to 1000 nM | 1000 to 10000 nM
7 | C[C@@H](CC(F)(F)F)Nc1ncc2c(OC3C[C@H]4CC[C@@H](C3)N4C)ncc([C@H]3CC[C@H](O)CC3)c2n1 (stereo partly drawn) [Compound 370] | ≤ 100 nM | 100 to 1000 nM
8 | CC1(Nc2ncc3c(OC4CCOCC4)ncc(-c4cccc(S(=O)(=O)N5CCC5)c4)c3n2)CC1 [Compound 405] | 100 to 1000 nM | 1000 to 10000 nM
9 | C[C@@H](CF)Nc1ncc2c(OC3CC(C)(C)N(C)C(C)(C)C3)ncc([C@H]3CC[C@H](O)CC3)c2n1 [Compound 382] | 100 to 1000 nM | 1000 to 10000 nM
10 | C[C@@H](CC(F)(F)F)Nc1ncc2c(O[C@H]3C[C@@H](O)C3)ncc([C@H]3CC[C@H](O)CC3)c2n1 [Compound 360] | 100 to 1000 nM | 100 to 1000 nM
11 | C[C@H](CF)Nc1ncc2c(OC3CCOCC3)ncc([C@H]3CC[C@H](O)CC3)c2n1 [Compound 401] | 100 to 1000 nM | 1000 to 10000 nM
12 | COCCN1CCC(Oc2ncc([C@H]3CC[C@H](O)CC3)c3nc(N[C@@H](C)CC(F)(F)F)ncc23)CC1 [Compound 369] | 100 to 1000 nM | 1000 to 10000 nM
13 | C[C@@H](CC(F)(F)F)Nc1ncc2c(O[C@@H]3C[C@H]4CC[C@@H](C3)N4C[C@@H]3CCOC3)ncc([C@H]3CC[C@H](O)CC3)c2n1 [Compound 416] | ≤ 100 nM | ≤ 100 nM
14 | CC[C@@H](C)Nc1ncc2c(OC3CC(C)(C)N(C)C(C)(C)C3)ncc([C@H]3CC[C@H](O)CC3)c2n1 [Compound 367] | ≤ 100 nM | 100 to 1000 nM
15 | C[C@@H](CC(F)(F)F)Nc1ncc2c(OC3CCN([C@@H]4CCOC4)CC3)ncc([C@H]3CC[C@H](O)CC3)c2n1 [Compound 378] | 100 to 1000 nM | 1000 to 10000 nM
16 | COC[C@H](C)Nc1ncc2c(OC3CCOCC3)ncc(C3CCC(F)(F)CC3)c2n1 [Compound 358] | 1000 to 10000 nM | 1000 to 10000 nM
17 | COC[C@H](C)Nc1ncc2c(Nc3ccc(C)nc3)ncc([C@H]3CC[C@H](O)CC3)c2n1 [Compound 374] | 1000 to 10000 nM | 1000 to 10000 nM
18 | C[C@@H](CC(F)(F)F)Nc1ncc2c(O[C@H]3C[C@@H](O)C3)ncc([C@H]3CC[C@](C)(O)CC3)c2n1 [Compound 423] | ≤ 100 nM | 100 to 1000 nM
19 | C[C@H](Nc1ncc2c(O[C@H]3C[C@@H](O)C3)ncc([C@H]3CC[C@H](O)CC3)c2n1)C(F)F [Compound 411] | 100 to 1000 nM | 1000 to 10000 nM
20 | COCCN1C(C)(C)CC(Oc2ncc([C@H]3CC[C@H](O)CC3)c3nc(N[C@@H](C)CCO)ncc23)CC1(C)C [Compound 380] | 100 to 1000 nM | 1000 to 10000 nM

Row | Structure (SMILES) | IC50 [1] | IC50 [2]
21 | COC[C@H](C)Nc1ncc2c(O[C@H]3C[C@H](C(=O)N4CCN(C)CC4)C3)ncc([C@H]3CC[C@H](O)CC3)c2n1 [Compound 419] | 100 to 1000 nM | 1000 to 10000 nM
22 | COC[C@H](C)Nc1ncc2c(OC3C[C@@H](C)N(C)[C@H](C)C3)ncc([C@H]3CC[C@H](O)CC3)c2n1 (stereo partly drawn) [Compound 388] | 100 to 1000 nM | 1000 to 10000 nM
23 | C[C@@H](CC(F)(F)F)Nc1ncc2c(OC3CCN(S(C)(=O)=O)CC3)ncc([C@H]3CC[C@H](O)CC3)c2n1 [Compound 389] | 100 to 1000 nM | 1000 to 10000 nM
24 | C[C@@H](CC(F)(F)F)Nc1ncc2c(O[C@@H]3C[C@H]4CC[C@@H](C3)N4[C@@H]3CCOC3)ncc([C@H]3CC[C@H](O)CC3)c2n1 [Compound 415] | ≤ 100 nM | 100 to 1000 nM
25 | COC[C@H](C)Nc1ncc2c(OC3C[C@@H](C)N(C)[C@@H](C)C3)ncc([C@H]3CC[C@H](O)CC3)c2n1 (stereo partly drawn) [Compound 371] | 100 to 1000 nM | 1000 to 10000 nM
26 | CNC(=O)c1ccc(Nc2ncc3c(OC4CCOCC4)ncc([C@H]4CC[C@H](O)CC4)c3n2)cc1 [Compound 398] | 100 to 1000 nM | 100 to 1000 nM
27 | COC[C@H](C)Nc1ncc2c(O[C@H]3C[C@@H](O)C3)ncc([C@H]3CC[C@](C)(O)CC3)c2n1 [Compound 426] | 100 to 1000 nM | 1000 to 10000 nM
28 | COCCN1C(C)(C)CC(Oc2ncc([C@H]3CC[C@H](O)CC3)c3nc(N[C@@H](C)CC#N)ncc23)CC1(C)C [Compound 376] | 100 to 1000 nM | 1000 to 10000 nM
29 | C[C@@H](CC(F)(F)F)Nc1ncc2c(OC3CCN(c4ncccn4)CC3)ncc([C@H]3CC[C@H](O)CC3)c2n1 [Compound 373] | 100 to 1000 nM | 1000 to 10000 nM
30 | COC[C@H](C)Nc1ncc2c(Nc3ccnc(C)c3)ncc([C@H]3CC[C@H](O)CC3)c2n1 [Compound 372] | 1000 to 10000 nM | 1000 to 10000 nM
31 | CCC[C@H](C)Nc1ncc2c(=O)n(C3CCNCC3)cc([C@H]3CC[C@H](O)CC3)c2n1 [Compound 126] | 100 to 1000 nM | 1000 to 10000 nM
32 | CCOc1ncc([C@H]2CC[C@H](O)CC2)c2nc(N[C@@H](C)CC(F)(F)F)ncc12 [Compound 359] | 100 to 1000 nM | 100 to 1000 nM
33 | C[C@@H](CC(F)(F)F)Nc1ncc2c(O[C@@H]3C[C@H]4CC[C@@H](C3)N4C[C@H]3CCOC3)ncc([C@H]3CC[C@H](O)CC3)c2n1 [Compound 414] | ≤ 100 nM | ≤ 100 nM
34 | C[C@@H](Nc1ncc2c(OC3CCOCC3)ncc([C@H]3CC[C@H](O)CC3)c2n1)C(F)F [Compound 394] | 100 to 1000 nM | 1000 to 10000 nM
35 | COCCN1C(C)(C)CC(Oc2ncc([C@H]3CC[C@H](O)CC3)c3nc(N[C@@H](C)CC(F)(F)F)ncc23)CC1(C)C [Compound 355] | ≤ 100 nM | 100 to 1000 nM
36 | O=C(O)[C@H]1CC[C@H](Nc2ncc3c(OC4CCOCC4)ncc([C@H]4CC[C@H](O)CC4)c3n2)CC1 [Compound 410] | 1000 to 10000 nM | 1000 to 10000 nM
37 | COCCN1C(C)(C)CC(Oc2ncc([C@H]3CC[C@H](O)CC3)c3nc(N[C@@H]4CCOC4)ncc23)CC1(C)C [Compound 390] | 100 to 1000 nM | 1000 to 10000 nM
38 | COC[C@H](C)Nc1ncc2c(O[C@H]3C[C@@H](O)C3)ncc(-c3ccnnc3)c2n1 [Compound 425] | 1000 to 10000 nM | 1000 to 10000 nM
39 | COC[C@H](C)Nc1ncc2c(C(F)(F)F)ncc([C@H]3CC[C@H](O)CC3)c2n1 [Compound 403] | 1000 to 10000 nM | 1000 to 10000 nM
